Measurements: patent US20150094474A1, “AGRICULTURAL CHEMICALS” (Redx Pharma Ltd., priority 2012, published 2015)

Experiments:
barley = test: Herbicidal bioassay, barley (% necrosis); format: in vivo
Experimental: (§1) A laboratory bioassay was conducted to screen ten compounds (Fluazifop (25); Ethyl fluazifop (62); five fluazifop analogues: 27, 28, 63, 64 and 65; mesofulfuron (6); and two mesosulfuron analogues: 8 and 61. for activity against Lolium perenne, barley, peas and Chinese cabbage. Compounds were diluted in DMSO. Controls were performed using both DMSO and water.
(§2) Plants were obtained as seeds and were grown to the 2-4 true leaf stage. Plants were grown individually in seed trays. Each plant (in an approximately 3 cm diameter plug) was then detached from the tray for spraying. Environmental conditions were closely monitored and recorded and were within the optimal range of the target species.
(§3) The compounds were screened at a range of six concentrations, eg. 0.05%, 0.01%, 0.005%, 0.001%, 0.0005% and 0.0001%. Treatments will be applied directly onto the plants, using a potter tower.
(§4) One plant of each type will be sprayed using a potter tower. The 4 different types of weeds will be placed in a 10 cm diameter area underneath the potter sprayer and sprayed simultaneously. The growth of the plants and any Phytotoxicity effects will then be assessed at specified growth intervals, according to EPPO guideline PP1/135. Five replicates will be performed for each treatment, for each species.

peas = test: Herbicidal bioassay, peas (% necrosis); format: in vivo
Experimental: as §1, §2, §3, §4

CC(CO)Oc1ccc(Oc2ccc(C(F)(F)F)cn2)cc1 (stereo not drawn) [Compound 27, 2-[4-[[5-(Trifluoromethyl)-2-pyridyl]oxy]phenoxy]propan-1-ol]
C (less than 50% necrosis): Sum of % necrosis in barley (barley; Dose 0.000001, Day 0) | Sum of % necrosis in barley (barley; Dose 0.000001, Day 3) | Sum of % necrosis in barley (barley; Dose 0.000001, Day 7) | Sum of % necrosis in barley (barley; Dose 0.000001, Day 10) | Sum of % necrosis in barley (barley; Dose 0.000001, Day 14) | Sum of % necrosis in barley (barley; Dose 0.000001, Day 21) | Sum of % necrosis in barley (barley; Dose 0.000005, Day 0) | Sum of % necrosis in barley (barley; Dose 0.000005, Day 3) | Sum of % necrosis in barley (barley; Dose 0.000005, Day 7) | Sum of % necrosis in barley (barley; Dose 0.000005, Day 10) | Sum of % necrosis in barley (barley; Dose 0.000005, Day 14) | Sum of % necrosis in barley (barley; Dose 0.000005, Day 21) | Sum of % necrosis in barley (barley; Dose 0.00001, Day 0) | Sum of % necrosis in barley (barley; Dose 0.00001, Day 3) | Sum of % necrosis in barley (barley; Dose 0.00001, Day 7) | Sum of % necrosis in barley (barley; Dose 0.00001, Day 10) | Sum of % necrosis in barley (barley; Dose 0.00001, Day 14) | Sum of % necrosis in barley (barley; Dose 0.00001, Day 21) | Sum of % necrosis in barley (barley; Dose 0.00005, Day 0) | Sum of % necrosis in barley (barley; Dose 0.00005, Day 3) | Sum of % necrosis in barley (barley; Dose 0.00005, Day 7) | Sum of % necrosis in barley (barley; Dose 0.00005, Day 10) | Sum of % necrosis in barley (barley; Dose 0.00005, Day 14) | Sum of % necrosis in barley (barley; Dose 0.00005, Day 21) | Sum of % necrosis in barley (barley; Dose 0.0001, Day 0) | Sum of % necrosis in barley (barley; Dose 0.0001, Day 3) | Sum of % necrosis in barley (barley; Dose 0.0001, Day 7) | Sum of % necrosis in barley (barley; Dose 0.0001, Day 10) | Sum of % necrosis in barley (barley; Dose 0.0001, Day 14) | Sum of % necrosis in barley (barley; Dose 0.0001, Day 21) | Sum of % necrosis in barley (barley; Dose 0.0005, Day 0) | Sum of % necrosis in barley (barley; Dose 0.0005, Day 3) | Sum of % necrosis in barley (barley; Dose 0.0005, Day 7) | Sum of % necrosis in barley (barley; Dose 0.0005, Day 10) | Sum of % necrosis in barley (barley; Dose 0.0005, Day 14) | Sum of % necrosis in barley (barley; Dose 0.0005, Day 21) | Sum of % necrosis in Peas (peas; Dose 0.000001, Day 0) | Sum of % necrosis in Peas (peas; Dose 0.000001, Day 1) | Sum of % necrosis in Peas (peas; Dose 0.000001, Day 3) | Sum of % necrosis in Peas (peas; Dose 0.000001, Day 7) | Sum of % necrosis in Peas (peas; Dose 0.000001, Day 10) | Sum of % necrosis in Peas (peas; Dose 0.000001, Day 14) | Sum of % necrosis in Peas (peas; Dose 0.000001, Day 21) | Sum of % necrosis in Peas (peas; Dose 0.000005, Day 0) | Sum of % necrosis in Peas (peas; Dose 0.000005, Day 1) | Sum of % necrosis in Peas (peas; Dose 0.000005, Day 3) | Sum of % necrosis in Peas (peas; Dose 0.000005, Day 7) | Sum of % necrosis in Peas (peas; Dose 0.000005, Day 10) | Sum of % necrosis in Peas (peas; Dose 0.000005, Day 14) | Sum of % necrosis in Peas (peas; Dose 0.000005, Day 21) | Sum of % necrosis in Peas (peas; Dose 0.00001, Day 0) | Sum of % necrosis in Peas (peas; Dose 0.00001, Day 1) | Sum of % necrosis in Peas (peas; Dose 0.00001, Day 3) | Sum of % necrosis in Peas (peas; Dose 0.00001, Day 7) | Sum of % necrosis in Peas (peas; Dose 0.00001, Day 10) | Sum of % necrosis in Peas (peas; Dose 0.00001, Day 14) | Sum of % necrosis in Peas (peas; Dose 0.00001, Day 21) | Sum of % necrosis in Peas (peas; Dose 0.00005, Day 0) | Sum of % necrosis in Peas (peas; Dose 0.00005, Day 1) | Sum of % necrosis in Peas (peas; Dose 0.00005, Day 3) | Sum of % necrosis in Peas (peas; Dose 0.00005, Day 7) | Sum of % necrosis in Peas (peas; Dose 0.00005, Day 10) | Sum of % necrosis in Peas (peas; Dose 0.00005, Day 14) | Sum of % necrosis in Peas (peas; Dose 0.00005, Day 21) | Sum of % necrosis in Peas (peas; Dose 0.0001, Day 0) | Sum of % necrosis in Peas (peas; Dose 0.0001, Day 1) | Sum of % necrosis in Peas (peas; Dose 0.0001, Day 3) | Sum of % necrosis in Peas (peas; Dose 0.0001, Day 7) | Sum of % necrosis in Peas (peas; Dose 0.0001, Day 10) | Sum of % necrosis in Peas (peas; Dose 0.0001, Day 14) | Sum of % necrosis in Peas (peas; Dose 0.0001, Day 21) | Sum of % necrosis in Peas (peas; Dose 0.0005, Day 0) | Sum of % necrosis in Peas (peas; Dose 0.0005, Day 1) | Sum of % necrosis in Peas (peas; Dose 0.0005, Day 3) | Sum of % necrosis in Peas (peas; Dose 0.0005, Day 7) | Sum of % necrosis in Peas (peas; Dose 0.0005, Day 10) | Sum of % necrosis in Peas (peas; Dose 0.0005, Day 14) | Sum of % necrosis in Peas (peas; Dose 0.0005, Day 21)
